# Values of other authors as cited in PubChem BioAssay AID1259409 (Chemical Carcinogenesis Research Information System (CCRIS), 2018).
# Tested on: rodent chemically induced tumor inhibition, incidence and multiplicity
# Experiment: CCRIS tumor inhibitor studies
structure (smiles),measurement,setting,value
Cl,"tumour outcome (control, treated, inhibition, significance)","Carcinogen: 1,2-DIMETHYLHYDRAZINE, 540-73-8, Dose [Inhibitor]: 0, 5 G/L IN DRINKING WATER FOR DURATION OF STUDY BEGINNING 7 D PRIOR TO CARCINOGEN TREATMENT (STUDY DURATION: 8 MO), Route [Inhibitor]: ORAL, Species: RAT, Strain/Sex: BD6/MALE, Target Tissue: Type of Lesion: INTESTINE: TUMOR, Dose [Carcinogen]: 20 MG/KG BW 1/WK FOR 20 WK, Promoter: NONE USED","100%, 100%, 0%, not significant"
same,"tumour outcome (control, treated, inhibition, significance)","Carcinogen: BRACKEN FERN, Dose [Inhibitor]: 20 MG/G DIET/D FOR 12 MO SIMULTANEOUS WITH CARCINOGEN (STUDY DURATION: 12 MO), Route [Inhibitor]: ORAL, Species: RAT, Strain/Sex: ALBINO/?, Target Tissue: Type of Lesion: INTESTINE: TUMOR, Dose [Carcinogen]: 0.33 G IN DIET/D FOR 12 MO, Promoter: NONE USED","30/30 (100%), 16/23 (70%), 30%, p<0.01"
same,"tumour outcome (control, treated, inhibition, significance)","Carcinogen: BRACKEN FERN, Dose [Inhibitor]: 20 MG/G DIET/D FOR 12 MO SIMULTANEOUS WITH CARCINOGEN (STUDY DURATION: 12 MO), Route [Inhibitor]: ORAL, Species: RAT, Strain/Sex: ALBINO, Target Tissue: Type of Lesion: URINARY BLADDER: TUMOR, Dose [Carcinogen]: 0.33 G IN DIET/D FOR 12 MO, Promoter: NONE USED","22/30 (73%), 4/23 (17%), 77%, p<0.001"
same,"tumour outcome (control, treated, inhibition, significance)","Carcinogen: N-METHYL-N'-NITRO-N-NITROSOGUANIDINE, 70-25-7, Dose [Inhibitor]: 0, 1% IN DRINKING WATER BEGINNING 1 WK POST CARCINOGEN TREATMENT AND CONTINUING FOR STUDY DURATION (STUDY DURATION: 52 W, Route [Inhibitor]: ORAL, Species: RAT, Strain/Sex: SHR/MALE, Target Tissue: Type of Lesion: STOMACH: ADENOCARCINOMA, Dose [Carcinogen]: 40 ML OF A 25 MG/ML SOLUTION 1/2 D IN DRINKING WATER FOR 25 WK","65%, 20%, 69%, p<0.02"
same,"tumour outcome (control, treated, inhibition, significance)","Carcinogen: N-METHYL-N'-NITRO-N-NITROSOGUANIDINE, 70-25-7, Dose [Inhibitor]: 0, 1% IN DRINKING WATER BEGINNING 1 WK POST CARCINOGEN TREATMENT AND CONTINUING FOR STUDY DURATION (STUDY DURATION: 52 W, Route [Inhibitor]: ORAL, Species: RAT, Strain/Sex: WKR/MALE, Target Tissue: Type of Lesion: STOMACH: ADENOCARCINOMA, Dose [Carcinogen]: 40 ML OF A 25 MG/ML SOLUTION 1/2 D IN DRINKING WATER FOR 25 WK","25%, 20%, 20%, not calculated"
same,"tumour outcome (control, treated, inhibition, significance)","Carcinogen: N-METHYL-N'-NITRO-N-NITROSOGUANIDINE, 70-25-7, Dose [Inhibitor]: 0, 1% IN DRINKING WATER FOR 27 WK BEGINNING POST CARCINOGEN DOSE (STUDY DURATION: 52 WK), Route [Inhibitor]: ORAL, Species: RAT, Strain/Sex: WISTAR/MALE, Target Tissue: Type of Lesion: STOMACH: TUMOR, Dose [Carcinogen]: 25 UG/ML IN DRINKING WATER FOR 25 WK, Promoter: DEOXYCORTICOSTERONE ACETATE, 56-47-3","11/20 (55%), 3/18 (17%), 69%, p<0.05"
same,"tumour outcome (control, treated, inhibition, significance)","Carcinogen: N-METHYL-N'-NITRO-N-NITROSOGUANIDINE, 70-25-7, Dose [Inhibitor]: 0, 4% IN DIET FOR 25 WK BEGINNING 1 WK POST CARCINOGEN TREATMENT (STUDY DURATION: 52 WK), Route [Inhibitor]: ORAL, Species: RAT, Strain/Sex: WISTAR/MALE, Target Tissue: Type of Lesion: STOMACH: ADENOCARCINOMA, Dose [Carcinogen]: 25 UG/ML IN DRINKING WATER FOR 25 WK, Promoter: SODIUM CHLORIDE, 7647-14-5","17/19 (89%), 10/18 (56%), 37%, not significant"
same,"tumour outcome (control, treated, inhibition, significance)","Carcinogen: N-METHYL-N'-NITRO-N-NITROSOGUANIDINE, 70-25-7, Dose [Inhibitor]: 0, 8% IN DIET FOR 25 WK BEGINNING 1 WK POST CARCINOGEN TREATMENT (STUDY DURATION: 52 WK), Route [Inhibitor]: ORAL, Species: RAT, Strain/Sex: WISTAR/MALE, Target Tissue: Type of Lesion: STOMACH: ADENOCARCINOMA, Dose [Carcinogen]: 25 UG/ML IN DRINKING WATER FOR 25 WK, Promoter: SODIUM CHLORIDE, 7647-14-5","17/19 (89%), 5/19 (26%), 71%, p<0.01"
CC1(C)CC[C@]2(C(=O)O)CC[C@]3(C)C(=CC[C@@H]4[C@@]5(C)CC[C@H](O)C(C)(C)[C@@H]5CC[C@]43C)[C@@H]2C1,"tumour outcome (control, treated, inhibition, significance)","Carcinogen: AZOXYMETHANE, 25843-45-2, Dose [Inhibitor]: 0, 0.02% IN DIET IN WK 1-3 OF STUDY FOLLOWED BY BASAL DIET FOR DURATION OF STUDY (STUDY DURATION: 1 YR), Route [Inhibitor]: ORAL, Species: RAT, Strain/Sex: F344/MALE, Target Tissue: Type of Lesion: LARGE INTESTINE: ADENOCARCINOMA, Dose [Carcinogen]: 15 MG/KG BW 1/WK IN WK 1 AND 2 OF STUDY, Promoter: NONE USED","13/27 (48%), 6/29 (21%), 56%, not calculated"
same,"tumour outcome (control, treated, inhibition, significance)","Carcinogen: AZOXYMETHANE, 25843-45-2, Dose [Inhibitor]: 0, 0.02% IN DIET IN WK 1-3 OF STUDY FOLLOWED BY BASAL DIET FOR DURATION OF STUDY (STUDY DURATION: 1 YR), Route [Inhibitor]: ORAL, Species: RAT, Strain/Sex: F344/MALE, Target Tissue: Type of Lesion: LARGE INTESTINE: ADENOMA, Dose [Carcinogen]: 15 MG/KG BW 1/WK IN WK 1 AND 2 OF STUDY, Promoter: NONE USED","6/27 (22%), 8/29 (28%), -27%, not significant"
same,"tumour outcome (control, treated, inhibition, significance)","Carcinogen: AZOXYMETHANE, 25843-45-2, Dose [Inhibitor]: 0, 0.02% IN DIET IN WK 1-3 OF STUDY FOLLOWED BY BASAL DIET FOR DURATION OF STUDY (STUDY DURATION: 1 YR), Route [Inhibitor]: ORAL, Species: RAT, Strain/Sex: F344/MALE, Target Tissue: Type of Lesion: SMALL INTESTINE: ADENOCARCINOMA, Dose [Carcinogen]: 15 MG/KG BW 1/WK IN WK 1 AND 2 OF STUDY, Promoter: NONE USED","6/27 (22%), 3/29 (10%), 55%, not calculated"
Clc1c(Cl)c(Cl)c2c(c1Cl)Oc1c(Cl)c(Cl)c(Cl)c(Cl)c1O2,"tumour outcome (control, treated, inhibition, significance)","Carcinogen: 7,12-DIMETHYLBENZ[A]ANTHRACENE, 57-97-6, Dose [Inhibitor]: 0, 17 NMOL 2/WK APPLIED 1 HR PRIOR TO EACH PROMOTER DOSE FOR 20 WK (STUDY DURATION: 21 WK), Route [Inhibitor]: DERMAL, Species: MOUSE, Target Tissue: Type of Lesion: SKIN: TUMOR, Dose [Carcinogen]: 390 NMOL ONCE, Promoter: 12-O-TETRADECANOYLPHORBOL-13-ACETATE, 16561-29-8","100%, 87%, 13%, not calculated"
Oc1cc(O)c2c(c1)O[C@H](c1cc(O)c(O)c(O)c1)[C@H](O)C2,"tumour outcome (control, treated, inhibition, significance)","Carcinogen: 4-METHYLNITROSAMINO-1-(3-PYRIDYL)-1-BUTANONE, 64091-91-4, Dose [Inhibitor]: 0, 560 PPM IN DRINKING WATER 2 WK PRIOR TO CARCINOGEN AND CONTINUING FOR 13 WK (STUDY DURATION: 29 WK), Route [Inhibitor]: ORAL, Species: MOUSE, Strain/Sex: A/J/FEMALE, Target Tissue: Type of Lesion: LUNG: ADENOMA, Dose [Carcinogen]: 11.65 MG/KG IN CORN OIL 3/WK FOR 10 WK, Promoter: NONE USED","100%, 100%, 0%, not significant"
same,"tumour outcome (control, treated, inhibition, significance)","Carcinogen: N-ETHYL-N'-NITRO-N-NITROSOGUANIDINE, 4245-77-6, Dose [Inhibitor]: 0, 0.005% IN DRINKING WATER BEGINNING POST CARCINOGEN TREATMENT AND CONTINUING FOR DURATION OF STUDY (STUDY DURATION: 16, Route [Inhibitor]: ORAL, Species: MOUSE, Strain/Sex: C57BL/MALE, Target Tissue: Type of Lesion: DUODENUM: TUMOR, Dose [Carcinogen]: 100 MG/L IN DRINKING WATER FOR 4 WK, Promoter: NONE USED","20/36 (63%), 6/30 (20%), 68%, p<0.001"
same,"tumour outcome (control, treated, inhibition, significance)","Carcinogen: N-METHYL-N'-NITRO-N-NITROSOGUANIDINE, 70-25-7, Dose [Inhibitor]: 0, 0.005% IN DRINKING WATER BEGINNING POST CARCINOGEN TREATMENT AND CONTINUING FOR DURATION OF STUDY (STUDY DURATION: 44, Route [Inhibitor]: ORAL, Species: RAT, Strain/Sex: WISTAR/MALE, Target Tissue: Type of Lesion: GLANDULAR STOMACH: TUMOR, Dose [Carcinogen]: 100 MG/L IN DRINKING WATER FOR 28 WK, Promoter: NONE USED","10/14 (71%), 6/10 (60%), 15%, not significant"
same,"tumour outcome (control, treated, inhibition, significance)","Carcinogen: N-METHYL-N'-NITRO-N-NITROSOGUANIDINE, 70-25-7, Dose [Inhibitor]: 0, 0.05% IN DRINKING WATER BEGINNING POST CARCINOGEN TREATMENT AND CONTINUING FOR DURATION OF STUDY (STUDY DURATION: 44, Route [Inhibitor]: ORAL, Species: RAT, Strain/Sex: WISTAR/MALE, Target Tissue: Type of Lesion: GLANDULAR STOMACH: TUMOR, Dose [Carcinogen]: 80 MG/L IN DRINKING WATER FOR 28 WK, Promoter: NONE USED","21/34 (62%), 11/35 (31%), 50%, p<0.05"
same,"tumour outcome (control, treated, inhibition, significance)","Carcinogen: PEROXYNITRITE [19059-14-4], Dose [Inhibitor]: 0.0025% IN WATER FROM 1 WK BEFORE TO 1 WK AFTER INITIATION, Route [Inhibitor]: DRINKING WATER, Species: MOUSE, Strain/Sex: SENCAR/FEMALE, Target Tissue: Type of Lesion: SKIN: PAPILLOMA, Dose [Carcinogen]: 390 UMOL ONCE (STUDY DURATION: 20 WKS), Promoter: TETRADECANOYL PHORBOL ACETATE [16561-29-8]","100%; 10%, 90% (at wk 11)"
